According to patent publication US4194009A, “Aryloxyphenylpropylamines for obtaining a psychotropic effect” (Eli Lilly and Company, priority 1976, dated 1980):
Like-named read-outs stand apart in the source and are kept apart here.

Assays:
mice [1] = test: apomorphine hypothermia antagonism test; format: in vivo; settings: for inhibition in vivo at 10 mg/kg / inhibition in vivo at 1 mg/kg / inhibition in vivo at 3 mg/kg / inhibition in vivo at 0.3 mg/kg: Mus musculus, read-out: Percent Antagonism Apomorphine Pre-30 min.; for inhibition in vivo at 10 mg/kg / Percent Antagonism Apomorphine Pre-30 min. / inhibition in vivo at 1 mg/kg / inhibition in vivo at 3 mg/kg / inhibition in vivo at 0.3 mg/kg: mice; for antagonism of apomorphine hypothermia: in words
Procedure: (§1) The apomorphine hypothermia antagonism test is carried out as follows: mice are injected with a dose of apomorphine known to reduce body temperature approximately 4° C. The compound under test is injected 1/2 hour before the injection of the apomorphine and the temperatures measured 1/2 hour after injection. The degree of antagonism is expressed as a percent reduction (as compared with controls) of the temperature decrease produced by the injection of the apomorphine. The reserpine hypothermia reversal test is carried out as follows: groups of mice are injected with reserpine and 16.5 hours later are injected intraperitoneally with graded doses of the drug, a different dose level being given to each group of mice. Temperatures are measured at 1 hour after injection of the drug under test and again the effectiveness of the drug is expressed as a percentage decrease in the hypothermia induced by the injection of reserpine as compared with the control group. In the tables which follow, Table 4 gives the results in the apomorphine antagonism and reserpine reversal hypothermia tests for the secondary amines of this invention. In the table, the first column gives the substituent attached to the oxygen atom at the 3 position of the propylamine chain; columns 2 to 4 the percent antagonism against apomorphine hypothermia at dose levels of 0.3, 1 and 3 mg./kg. and columns 5-7 the percent reversal of reserpine hypothermia at the same dose levels.

[2] = test system: norepinephrine uptake by synaptosomes from rat brain; test: blockage of norepinephrine uptake by synaptosomes from rat brain; format: biochemical; settings: Table 1, norepinephrine 0.48 μM
Source text: (§2) This blockade is shown both in vitro with radioactive labelled compounds to determine the amount of monoamine uptake by synaptosomes from rat brain, and in vivo by a variety of methods. Among the physiologically active monoamines whose uptake is blocked by the compounds of this invention are included serotonin, norepinephrine and dopamine (3,4-dihydroxyphenylethylamine). […] Tables 1 and 2 which follow set forth the results of some of the in vitro determinations of the blockage of monoamine uptake by the compounds of this invention. In the tables, column 1 gives the R substituent on the 3-phenylpropylamine and columns 2-4, the concentration in micrograms per ml. that blocks the uptake of a particular amine by 50 percent for the amines--norephinephrine, serotonin, and dopamine. At the head of each column is given the concentration of the particular monoamine used in the experiment.

[3] = test system: serotonin uptake by synaptosomes from rat brain; test: blockage of serotonin uptake by synaptosomes from rat brain; format: biochemical; settings: Table 1, serotonin 0.1 μM
Source text: In the tables, column 1 gives the R substituent on the 3-phenylpropylamine and columns 2-4, the concentration in micrograms per ml. that blocks the uptake of a particular amine by 50 percent for the amines--norephinephrine, serotonin, and dopamine. At the head of each column is given the concentration of the particular monoamine used in the experiment.

[4] = test system: dopamine uptake by synaptosomes from rat brain; test: blockage of dopamine uptake by synaptosomes from rat brain; format: biochemical; settings: Table 1, dopamine 0.2 μM
Source text: as §2

mice [5] = test: reserpine hypothermia reversal test; format: in vivo; settings: for reversal of reserpine hypothermia: in words
Procedure: as §1

[6] = Table 5, mice, 3 mg./kg. intraperitoneally
[7] = Table 5, mice, 10 mg./kg. intraperitoneally
[8] = Table 4, mice, 1 mg./kg. intraperitoneally
[9] = Table 4, mice, 3 mg./kg. intraperitoneally
[10] = Table 5, mice, 1 mg./kg. intraperitoneally

Structure (SMILES)	Concentration in mcg./ml. that blocks 50% of amine uptake, Norepinephrine [2]	Concentration in mcg./ml. that blocks 50% of amine uptake, Serotonin [3]	Concentration in mcg./ml. that blocks 50% of amine uptake, Dopamine [4]	Percent Antagonism Apomorphine Pre-30 min. (mice [1]; Table 5, 3 mg./kg.) [%]	Percent Antagonism Apomorphine Pre-30 min. (mice [1]; Table 5, 10 mg./kg.) [%]	Percent Antagonism Reserpine Post-60 min. (mice [5]; [7]) [%]	other results
CN(C)CCC(Oc1ccccc1F)c1ccccc1 (stereo not shown) [o-fluorophenyl]	–	–	–	–	–	–	inhibition in vivo at 10 mg/kg (mice [1]; Table 5, 10 mg./kg.): 3%
CCOc1ccccc1OC(CCN(C)C)c1ccccc1 (stereo not shown) [o-phenetyl, N,N-dimethyl 3-(o-ethoxyphenoxy)-3-phenylpropylamine]	3 µg/mL	6 µg/mL	> 100 µg/mL	13	76	40	Percent Antagonism Reserpine Post-60 min. (mice [5]; [6]): 16%
CN(C)CCCN1c2ccccc2CCc2ccccc21 [imipramine, reference compound]	–	–	–	–	–	–	antagonism of apomorphine hypothermia (mice [1]): active; reversal of reserpine hypothermia (mice [5]): active
CN(C)CCC(Oc1ccccc1C(F)(F)F)c1ccccc1 (stereo not shown) [o-trifluoromethylphenyl, N,N-dimethyl 3-(o-trifluoromethylphenoxy)-3-phenylpropylamine]	70 µg/mL	.16 µg/mL	–	32	55	10	Percent Antagonism Apomorphine Pre-30 min. (mice [1]; Table 4, 1 mg./kg.): 13%; Percent Antagonism Apomorphine Pre-30 min. (mice [1]; Table 4, 3 mg./kg.): 28%; Percent Antagonism Apomorphine Pre-30 min. (mice [1]; Table 5, 1 mg./kg.): 21%; Percent Antagonism Reserpine Post-60 min. (mice [5]; [8]): 9%; Percent Antagonism Reserpine Post-60 min. (mice [5]; [9]): 8%
Cc1cc(F)ccc1OC(CCN(C)C)c1ccccc1 (stereo not shown) [4-fluoro-o-tolyl, N,N-dimethyl 3-(p-fluoro-o-tolyloxy)-3-phenylpropylamine]	2.5 µg/mL	.6 µg/mL	40 µg/mL	–	–	–	–
CN(C)CCC(Oc1ccccc1)c1ccccc1 (stereo not shown) [phenyl]	1 µg/mL	.6 µg/mL	.3 µg/mL	3	54	49	Percent Antagonism Reserpine Post-60 min. (mice [5]; [6]): 20%
CC(C)c1ccccc1OC(CCN(C)C)c1ccccc1 (stereo not shown) [o-isopropylphenyl]	1.5 µg/mL	> 100 µg/mL	> 100 µg/mL	–	–	–	inhibition in vivo at 1 mg/kg (mice [1]; Table 5, 1 mg./kg.): 17%; inhibition in vivo at 3 mg/kg (mice [1]; Table 5, 3 mg./kg.): 39%; inhibition in vivo at 10 mg/kg (mice [1]; Table 5, 10 mg./kg.): 65%; inhibition in vivo at 0.3 mg/kg (mice [1]; Table 5, .3 mg./kg.): 3%
CN(C)CCC(Oc1ccc2ccccc2c1)c1ccccc1 (stereo not drawn) [β-naphthyl, N,N-dimethyl 3-(β-naphthyloxy)-3-phenylpropylamine]	> 100 µg/mL	1 µg/mL	> 100 µg/mL	–	–	–	–
CN(C)CCC(Oc1ccccc1Cl)c1ccccc1 (stereo not shown) [o-chlorophenyl, N,N-dimethyl 3-(o-chlorophenoxy)-3-phenylpropylamine]	.45 µg/mL	.2 µg/mL	.2 µg/mL	-17	57	25	Percent Antagonism Apomorphine Pre-30 min. (mice [1]; Table 5, 1 mg./kg.): -10%; Percent Antagonism Reserpine Post-60 min. (mice [5]; [10]): 3%; Percent Antagonism Reserpine Post-60 min. (mice [5]; [6]): 4%
CNCCC=C1c2ccccc2CCc2ccccc21 [nortriptyline, reference compound]	–	–	–	–	–	–	antagonism of apomorphine hypothermia (mice [1]): active; reversal of reserpine hypothermia (mice [5]): active
CNCCC(Oc1cccc(OC)c1)c1ccccc1 (stereo not shown) [m-anisyl, N-methyl 3-phenyl-3-(m-methoxyphenoxy)propylamine]	–	–	–	-7	-5	5	Percent Antagonism Apomorphine Pre-30 min. (mice [1]; Table 4, 0.3 mg./kg.): 15%; Percent Antagonism Apomorphine Pre-30 min. (mice [1]; Table 4, 1 mg./kg.): 15%; Percent Antagonism Apomorphine Pre-30 min. (mice [1]; Table 4, 3 mg./kg.): 71%; Percent Antagonism Apomorphine Pre-30 min. (mice [1]; Table 5, 1 mg./kg.): -12%; Percent Antagonism Reserpine Post-60 min. (mice [5]; Table 4, mice, 0.3 mg./kg. intraperitoneally): 8%; Percent Antagonism Reserpine Post-60 min. (mice [5]; [8]): 21%; Percent Antagonism Reserpine Post-60 min. (mice [5]; [9]): 21%; Percent Antagonism Reserpine Post-60 min. (mice [5]; [10]): -1%; Percent Antagonism Reserpine Post-60 min. (mice [5]; [6]): 6%
CN(C)CCC(Oc1cccc(C(F)(F)F)c1)c1ccccc1 (stereo not shown) [m-trifluoromethylphenyl, N,N-dimethyl 3-phenyl-3-(m-trifluoromethylphenoxy) propylamine]	8 µg/mL	.18 µg/mL	> 100 µg/mL	–	–	–	–
C=CCc1ccccc1OC(CCN(C)C)c1ccccc1 (stereo not shown) [o-allylphenyl, N,N-dimethyl 3-phenyl-3-(o-allylphenoxy)propylamine]	–	–	–	–	–	–	inhibition in vivo at 3 mg/kg (mice [1]; Table 5, 3 mg./kg.): 11%; inhibition in vivo at 10 mg/kg (mice [1]; Table 5, 10 mg./kg.): 67%
COc1cccc(OC(CCN(C)C)c2ccccc2)c1 (stereo not shown) [m-methoxyphenyl, N,N-dimethyl 3-phenyl-3-(m-methoxyphenoxy)propylamine]	.2 µg/mL	.08 µg/mL	.5 µg/mL	–	–	–	–
Cc1cccc(OC(CCN(C)C)c2ccccc2)c1 (stereo not shown) [m-tolyl, N,N-dimethyl 3-phenyl-3-(m-tolyloxy)propylamine]	12 µg/mL	.7 µg/mL	–	–	–	–	–
CN(C)CCC(Oc1ccccc1C(C)(C)C)c1ccccc1 (stereo not shown) [o-t-butylphenyl, N,N-dimethyl 3-phenyl-3-(o-t-butylphenoxy)propylamine]	1.5 µg/mL	40 µg/mL	> 100 µg/mL	–	–	–	–
COc1ccc(OC(CCN(C)C)c2ccccc2)cc1 (stereo not shown) [p-anisyl]	–	–	–	–	–	–	inhibition in vivo at 3 mg/kg (mice [1]; Table 5, 3 mg./kg.): 25%; inhibition in vivo at 3 mg/kg (mice [5]; Mus musculus, ip, 1 h, Table 5, mice, 3 mg./kg. intraperitoneally, read-out: Percent Antagonism Reserpine Post-60 min.): 67%
CN(C)CCC(Oc1ccccc1Br)c1ccccc1 (stereo not shown) [o-bromophenyl, N,N-dimethyl 3-(o-bromophenoxy)-3-phenylpropylamine]	–	.1 µg/mL	5 µg/mL	40	47	30	Percent Antagonism Apomorphine Pre-30 min. (mice [1]; Table 5, 1 mg./kg.): 19%; Percent Antagonism Reserpine Post-60 min. (mice [5]; [6]): 18%
CN(C)CCC(Oc1ccc(F)cc1F)c1ccccc1 (stereo not shown) [2,4-difluorophenyl, N,N-dimethyl 3-(2',4'-difluorophenoxy)-3-phenylpropylamine]	.2 µg/mL	.3 µg/mL	10 µg/mL	–	–	–	inhibition in vivo at 0.3 mg/kg (mice [1]; Table 4, 0.3 mg./kg.): 20%; inhibition in vivo at 1 mg/kg (mice [1]; Table 4, 1 mg./kg.): 53%; inhibition in vivo at 3 mg/kg (mice [1]; Table 4, 3 mg./kg.): 64%; inhibition in vivo at 1 mg/kg (mice [1]; Table 5, 1 mg./kg.): 26%; inhibition in vivo at 3 mg/kg (mice [1]; Table 5, 3 mg./kg.): 55%; inhibition in vivo at 10 mg/kg (mice [1]; Table 5, 10 mg./kg.): 98%
